Source: patent US20100285139A1, “PHARMACEUTICAL COMPOSITION FOR THE PROPHYLAXIS AND/OR SYMPTOMATIC TREATMENT OF CYSTIC FIBROSIS” (CYCNAD GMBH & CO., KG, priority 2007, published 2010)

Key:
[1] = molecular target: T1, acid sphingomyelinase (Mus musculus, UniProt Q04519); test: Activity of acid sphingomyelinase in lung extracts of treated mice; assay type: in vivo
T1 construct: from tissue; host or cells: lung homogenate of wild-type and Cftr-deficient mice
T1 sequence (Q04519 45-627): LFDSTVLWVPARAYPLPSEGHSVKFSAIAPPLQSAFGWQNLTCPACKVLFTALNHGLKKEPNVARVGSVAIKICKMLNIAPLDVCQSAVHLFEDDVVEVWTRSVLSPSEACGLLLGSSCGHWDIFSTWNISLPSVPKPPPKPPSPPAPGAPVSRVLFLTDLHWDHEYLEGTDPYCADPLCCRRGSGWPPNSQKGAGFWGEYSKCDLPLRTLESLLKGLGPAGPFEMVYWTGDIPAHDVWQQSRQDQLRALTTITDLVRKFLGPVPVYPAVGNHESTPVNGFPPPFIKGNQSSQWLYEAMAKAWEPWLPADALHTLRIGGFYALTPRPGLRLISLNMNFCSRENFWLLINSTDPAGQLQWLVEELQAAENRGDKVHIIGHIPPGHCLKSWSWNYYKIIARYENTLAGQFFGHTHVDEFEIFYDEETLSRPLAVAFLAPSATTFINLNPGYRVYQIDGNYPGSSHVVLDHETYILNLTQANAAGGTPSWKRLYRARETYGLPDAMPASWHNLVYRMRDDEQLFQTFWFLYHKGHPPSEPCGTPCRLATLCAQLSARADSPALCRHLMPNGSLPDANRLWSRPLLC
Protocol: The inhalation was carried out with the aid of an inhaler (Pariboy® SX). The liquid reservoir in this inhaler was connected to an air nozzle, whereby it was possible to produce a fine aerosol which was inhaled through a mask by the mice. For this, the noses of the experimental animals were pressed manually into the opening of the mask for 10 minutes. This permitted excellent control of the inhalation process. All mice were subjected to an inhalation process 3 times at an interval of 12 hours. The lungs were shock-frozen, homogenized under liquid nitrogen and subsequently transferred to a buffer of 250 mM sodium acetate (pH 5.0), 1.3 mM EDTA and 1% NP40. The homogenizate was then subjected to ultrasound treatment (ultrasonic processor tip sonicator) a total of three times. Subsequently, an aliquot of the samples was diluted with 250 mM sodium acetate (pH 5.0), 1.3 mM EDTA 0.1% NP40 and incubated with 0.05 μCi of [^14C]sphingomyelin per sample (52 mCi/mmol; […] The radioactive sample of [^14C]sphingomyelin was dried, resuspended in 250 mM sodium acetate (pH 5.0), 1.3 mM EDTA and 0.1% NP40 and subsequently subjected to ultrasound treatment for 10 minutes, before it was added to the homogenized samples. The samples were incubated for 30 minutes in total at about 37° C. Subsequently, the enzymatic reaction was ended by extraction (extraction with a solvent mixture of chloroform and methanol in the volume ratio chloroform/methanol 2:1). The samples were then centrifuged and an aliquot of the aqueous phase was in each case subjected to scintillation counting to determine the release of [^14C]phosphorylcholine from [^14C] sphingomyelin. Wild-type mice and Cftr-deficient mice (Cftr-knockout mice) inhaled a solution of 4 mg/l of amitriptyline, 12.5 mg/l of trimipramine, 9 mg/l of desipramine, 8 mg/l of chlorprothixene, 4.5 mg/l of fluoxetine, 5 mg/l of amlodipine and 35 mg/l of sertraline. All substances were dissolved in water or DMSO for this and subsequently diluted at least 1:100 (for DMSO: at least 1:1000) in 0.9% sodium chloride solution. The mice inhaled the solutions for 10 minutes. An inhaler (Pariboy®) was used for the inhalation. In the course of the inhalation time, approximately 2 ml of the solutions administered were atomized. The inhalation was carried out a total of three times at intervals of 12 hours. The lungs were removed 60 minutes after the last inhalation, and the activity of the acid sphingomyelinase was determined in the lung extracts. Wild-type mice and Cftr-deficient mice were in each case inhaled 1 ml of an amitriptyline solution (4 mg/l of H2O) for 20 minutes with the aid of a customary pharmacy inhalation device. The amount of amitriptyline actually administered was therefore about 4 μg. In parallel to this, other wild-type mice and Cftr-deficient mice were in each case administered 100 μl of an amitriptyline solution (2.5 g/l of H2O), so that the amount of amitriptyline actually administered in these animals was 250 μg. The injections were administered twice daily over 2 days. In the case of the inhalative treatment, the lungs of the mice were extracted 60 minutes or 12 hours after ending the inhalation, where in the case of the 12-hour experiments the inhalation was repeated after 6 hours. In the case of the mice treated by an injection solution, their lungs were removed 12 hours after the last injection.

[2] = tested on: Pseudomonas aeruginosa; test: Susceptibility to infection: Pseudomonas aeruginosa bacterial count in the lung after intranasal infection; assay type: in vivo, mice
Protocol: The bacteria were cultured for 14 to 14.5 hours on TSA agar plates (Becton Dickinson). Fresh plates were used for at most 2 weeks for this. The bacteria were then transferred to Erlenmeyer flasks in 40 ml of a prewarmed and sterile buffer (TSB, Becton Dickinson). The optical density (OD) or extinction was adjusted to 0.225 (corresponds to 5.5×10^8 CFU/ml) and the bacteria were incubated for 60 minutes at 37° C. with shaking at 125 rpm. The quality of the agar plates and of TSB and the shaking speed were crucial for the obtainment of reproducible results. In this way, it was possible to obtain a Pseudomonas aeruginosa population exactly in the early log phase (the bacteria replicated approximately by 10-fold within an incubation time of 60 minutes). The fact that the bacteria were bacteria of the early log phase was extremely important to obtain reproducible conditions for the subsequent infection with the experimental animals. The bacteria were centrifuged at 2800 rpm (1600×g) in a 50 ml tube. The supernatant was then carefully removed and the bacteria were resuspended in 10 ml of RPMI-1640, supplemented with 10 mM HEPES (pH 7.3). The suspension was transferred to a 15 ml tube and subsequently washed twice. Finally, the bacteria were resuspended in prewarmed HEPES/salt (HS; 132 mM NaCl, 20 mM HEPES (pH 7.4), 5 mM KCl, 1 mM CaCl2, 0.7 mM MgCl2, 0.8 mM MgSO4) and the bacterial optical density was determined. The bacteria were then diluted with prewarmed H/S to a concentration of 10^8 CFU/20 μl . The mice were then infected within the next 10 minutes. For this purpose, a syringe with a volume of 1 ml and a 30 gauge needle was used. The mice were anesthetized in ether for 10 to 15 seconds. Following this, the needle was immediately inserted 2 mm into the noses of the mice and the bacteria were carefully injected. Between the first and the last mouse which were infected, a time interval of at most 10 minutes was allowed to pass to avoid variations in the formation of viable bacterial colonies in this way. […] Subsequently, the number of bacteria in the lung was measured as a measure of the sensitivity of the mice to developing a Pseudomonas aeruginosa infection. […] The bacterial colonies were counted after 15 hours growth at 37° C. as a measure of the number of pulmonary bacteria and thus as a measure of an infection.
(§1) Wild-type mice and Cftr-deficient mice were inhaled with a solution of 4 mg/l of amitriptyline, 12.5 mg/l of trimipramine, 9 mg/l of desipramine, 8 mg/l of chlorprothixene, 4.5 mg/l of fluoxetine, 5 mg/l of amlodipine and 35 mg/l of sertraline. […] The lungs were removed from the experimental animals 60 minutes after the inhalation, and the susceptibility to infection of the experimental animals in relation to Pseudomonas aeruginosa was determined. […]

[3] = tested on: ceramide; test: Pulmonary ceramide concentration in lung extracts of treated mice; assay type: in vivo
Protocol: The inhalation was carried out with the aid of an inhaler (Pariboy® SX). The liquid reservoir in this inhaler was connected to an air nozzle, whereby it was possible to produce a fine aerosol which was inhaled through a mask by the mice. For this, the noses of the experimental animals were pressed manually into the opening of the mask for 10 minutes. This permitted excellent control of the inhalation process. All mice were subjected to an inhalation process 3 times at an interval of 12 hours.
After killing the experimental animals, the lungs were removed, homogenized under liquid nitrogen and added to a mixture of chloroform, methanol and 1N hydrochloric acid (100:100:1, v/v/v). After addition of 200 μl of H2O, the samples were centrifuged for 5 minutes (14,000 rpm, rotations per minute). The lower phase was then collected, dried and subjected to an alkaline hydrolysis of diacylglycerol in 0.1 N methanolic potassium hydroxide solution at 37° C. for 60 minutes. The samples were extracted again, and the lower phase was dried and subsequently resuspended in 20 μl of a detergent solution (7.5% (w/v) of n-octylglucopyranoside, 5 mM cardiolipin in 1 mM diethylenetriaminepentaacetic acid (DTPA)). After an ultrasound treatment (10 minutes), the samples were added to 70 μl of a reaction mixture which contained 10 μl of diacylglycerol kinase (GE Healthcare Europe, Munich, Germany), 0.1 M imidazole/HCl (pH 6.6), 0.2 mM diethylenetriaminepentaacetic acid (pH 6.6), 70 mM sodium chloride, 17 mM magnesium chloride, 1.4 mM EGTA, 2 mM DTT, 1 μM ATP and 10 μCi of [^32P]γATP. The kinase reaction was carried out for 30 minutes at room temperature and subsequently ended by addition of 1 ml of chloroform:methanol:1 N HCl (100:100:1, v/v/v), 170 μl of buffered saline solution (135 mM sodium chloride, 1.5 mM calcium chloride, 0.5 mM magnesium chloride, 5.6 mM glucose, 10 mM HEPES, pH 7.2) and 30 μl of a 100 mM EDTA solution. The samples were then vortexed and the resulting phases were separated. […] The incorporation of [^32P] in ceramide was quantified by means of liquid scintillation counting, since the spots […]. The amounts of ceramide were determined by comparison with a standard curve using C16-ceramide as substrate.
as §1, with “pulmonary ceramide concentration in” for “susceptibility to infection of”, “lung extracts” for “experimental animals in relation to Pseudomonas aeruginosa”

enzyme activity of acid sphingomyelinase in lung extracts ([1]; Cftr-deficient mice, 12 h after intraperitoneal injection of 250 micrograms, twice daily over 2 days): 151±17 pmol/min/mg of protein
enzyme activity of acid sphingomyelinase in lung extracts ([1]; Cftr-deficient mice, lungs extracted 60 min after inhalation of 1 ml amitriptyline solution (4 mg/l)): 148±17 pmol/min/mg of protein
enzyme activity of acid sphingomyelinase in lung extracts ([1]; Cftr-deficient mice, lungs extracted 12 h after inhalation of 1 ml amitriptyline solution (4 mg/l)): 167±9 pmol/min/mg of protein
enzyme activity of acid sphingomyelinase in lung extracts ([1]; wild-type mice, 12 h after intraperitoneal injection of 250 micrograms, twice daily over 2 days): 168±19 pmol/min/mg of protein
enzyme activity of acid sphingomyelinase in lung extracts ([1]; wild-type mice, lungs extracted 60 min after inhalation of 1 ml amitriptyline solution (4 mg/l)): 176±18 pmol/min/mg of protein
enzyme activity of acid sphingomyelinase in lung extracts ([1]; wild-type mice, lungs extracted 12 h after inhalation of 1 ml amitriptyline solution (4 mg/l)): 200±14 pmol/min/mg of protein
Compound: CN(C)CCC=C1c2ccccc2CCc2ccccc21 [amitriptyline]
bacterial count in the lungs ([2]; Cftr-deficient mice, treated by inhalation (4 mg/l solution), 2 h after intranasal infection with 1×10^8 CFU P. aeruginosa strain 762): 12300±4075 CFU
bacterial count in the lungs ([2]; Cftr-deficient mice, treated by injection solution (250 micrograms i.p.), 2 h after intranasal infection): 11250±2360 CFU
bacterial count in the lungs ([2]; wild-type mice, treated by inhalation (4 mg/l solution), 2 h after intranasal infection with 1×10^8 CFU P. aeruginosa strain 762): 3600±2892 CFU
bacterial count in the lungs ([2]; wild-type mice, treated by injection solution (250 micrograms i.p.), 2 h after intranasal infection): 2780±1740 CFU
ceramide concentration in lung extracts ([3]; Cftr-deficient mice, 12 h after inhalation of 1 ml amitriptyline solution (4 mg/l)): 5.2±0.79 pmol/μg of protein
ceramide concentration in lung extracts ([3]; Cftr-deficient mice, parenterally treated, 12 h after intraperitoneal injection of 250 micrograms): 4.9±0.7 pmol/μg of protein
ceramide concentration in lung extracts ([3]; wild-type mice, 12 h after inhalation of 1 ml amitriptyline solution (4 mg/l)): 1.6±0.3 pmol/μg of protein
ceramide concentration in lung extracts ([3]; wild-type mice, parenterally treated, 12 h after intraperitoneal injection of 250 micrograms): 1.5±0.4 pmol/μg of protein
